Reference: US4866068A, “Novel HMG-CoA reductase inhibitors” (Merck & Co., Inc., priority 1988, dated 1989)

Test system: HMG-CoA reductase
Assay: in vitro HMG-CoA reductase inhibition, relative potency versus compactin
Format: biochemical
Settings: compactin (mevastatin) assigned a value of 100; IC50 of test compound compared with that of compactin determined simultaneously
Experimental: The intrinsic HMG-CoA reductase inhibition activity of the claimed compounds is measured in the in vitro protocol published in J. Med. Chem., 28, p. 347-358 (1985).
For estimation of relative inhibitory potencies, compactin (i.e., mevastatin) was assigned a value of 100 and the IC50 value of the test compound was compared with that of compactin determined simultaneously in the published in vitro protocol.

Structure (SMILES)	relative potency (intrinsic HMG-CoA reductase inhibitory activity)
C[C@H]1C=C2C=C[C@H](C)[C@H](CC[C@@H]3C[C@@H](O)CC(=O)O3)[C@H]2[C@@H](OC(=O)C(C)(C)Sc2ccncc2)C1 [Example 1, 6R-[2-[8(S)[2-methyl-2-(4-pyridinylthio)propionyloxy]-2(S), 6(R)-dimethyl-1,2,6,7,8,8a(R)-hexahydronaphthyl-1(S)]ethyl]-4(R)-hydroxy-3,4,5,6-tetrahydro-2H-pyran-2-one]	112
C[C@H]1C=C2C=C[C@H](C)[C@H](CC[C@@H]3C[C@@H](O)CC(=O)O3)[C@H]2[C@@H](OC(=O)C(C)(C)Sc2nc3ccccc3s2)C1 [Example 2]	100
